The results in this text go back to ChEMBL document CHEMBL1909046, “DrugMatrix in vitro pharmacology data”.

The target of assay [1] is Mitogen-activated protein kinase 1 (Homo sapiens, UniProt P28482). The assay is described as follows: DRUGMATRIX: Protein Serine/Threonine Kinase, ERK2 enzyme inhibition (substrate: Myelin Basic Protein). The arrangement: species or system Escherichia coli. To be noted: Not Active = under 50% inhibition at 10 µM.
The target in assay [2] is Beta-1 adrenergic receptor (Homo sapiens, UniProt P08588). Nature of the assay: DRUGMATRIX: Adrenergic beta1 radioligand binding (ligand: [125I] Cyanopindolol). The assay is classed as cell membranes, CHO-K1, Membrane. To be noted: Not Active = under 50% inhibition at 10 µM.
Chain of Beta-1 adrenergic receptor (P08588 whole entry): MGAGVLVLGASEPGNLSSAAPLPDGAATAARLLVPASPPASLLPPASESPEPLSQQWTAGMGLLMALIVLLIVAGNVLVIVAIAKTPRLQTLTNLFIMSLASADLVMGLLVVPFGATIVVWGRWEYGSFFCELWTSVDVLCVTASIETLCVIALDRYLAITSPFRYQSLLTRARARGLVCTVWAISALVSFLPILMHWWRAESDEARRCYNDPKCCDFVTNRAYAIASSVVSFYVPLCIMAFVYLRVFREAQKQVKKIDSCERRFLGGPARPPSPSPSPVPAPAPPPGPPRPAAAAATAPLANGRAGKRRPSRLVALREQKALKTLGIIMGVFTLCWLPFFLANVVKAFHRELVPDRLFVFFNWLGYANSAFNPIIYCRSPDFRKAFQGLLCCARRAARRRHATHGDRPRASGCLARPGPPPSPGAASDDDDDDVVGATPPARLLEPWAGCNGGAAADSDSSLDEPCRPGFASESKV
A short description of assay [3]: DRUGMATRIX: Phorbol Ester radioligand binding (ligand: [3H] PDBu). The assay is classed as cell membranes, Mus musculus, ICR, Brain, Membrane. To be noted: Not Active = under 50% inhibition at 10 µM.
Assay [4] can be described thus: DRUGMATRIX: Tumor Necrosis Factor (TNF), Non-Selective radioligand binding (ligand: [125I] TNF-alpha). The assay is classed as cell membranes, Membrane. To be noted: u-937; Not Active = under 50% inhibition at 10 µM.
A short description of assay [5]: DRUGMATRIX: Leukotriene, BLT (LTB4) radioligand binding (ligand: [3H]LTB4). To be noted: u-937, Not Active = under 50% inhibition at 10 µM. The assay is classed as cell membranes, Membrane.
The target of assay [6] is T1, Alpha-2C adrenergic receptor (Homo sapiens, UniProt P18825).
T1 sequence (P18825 whole entry): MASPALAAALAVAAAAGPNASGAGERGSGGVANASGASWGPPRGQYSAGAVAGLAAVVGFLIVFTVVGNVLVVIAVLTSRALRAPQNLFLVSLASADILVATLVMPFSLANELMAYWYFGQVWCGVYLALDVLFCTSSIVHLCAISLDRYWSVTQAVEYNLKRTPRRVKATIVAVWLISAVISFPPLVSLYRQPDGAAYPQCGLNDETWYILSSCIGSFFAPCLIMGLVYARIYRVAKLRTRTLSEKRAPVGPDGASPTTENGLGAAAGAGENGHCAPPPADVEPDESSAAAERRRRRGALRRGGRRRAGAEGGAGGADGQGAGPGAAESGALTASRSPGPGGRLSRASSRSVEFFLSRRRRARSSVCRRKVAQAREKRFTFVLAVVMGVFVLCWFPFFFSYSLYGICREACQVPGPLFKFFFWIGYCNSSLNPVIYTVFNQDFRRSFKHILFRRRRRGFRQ
Nature of the assay: DRUGMATRIX: Adrenergic Alpha-2C radioligand binding (ligand: [3H] MK-912). The assay is classed as cell membranes, Sf9, Membrane.

Chain of Mitogen-activated protein kinase 1 (P28482 whole entry): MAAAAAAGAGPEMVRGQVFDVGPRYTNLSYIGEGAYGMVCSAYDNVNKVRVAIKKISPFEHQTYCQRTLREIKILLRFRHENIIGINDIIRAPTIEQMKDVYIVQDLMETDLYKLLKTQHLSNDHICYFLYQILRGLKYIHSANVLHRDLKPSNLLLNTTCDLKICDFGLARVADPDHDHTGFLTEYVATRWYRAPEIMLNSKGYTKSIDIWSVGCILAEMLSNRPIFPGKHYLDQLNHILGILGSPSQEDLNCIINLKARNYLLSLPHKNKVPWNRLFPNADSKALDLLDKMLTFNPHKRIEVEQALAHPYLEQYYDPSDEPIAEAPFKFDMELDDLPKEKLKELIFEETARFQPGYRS

What is called IC50 is the concentration needed to halve the response being measured. As usually defined, the Ki is a measure of affinity in units of concentration, obtained from inhibition or displacement. Consider `C#C[C@]1(O)CC[C@H]2[C@@H]3[C@H](C)CC4=C(CCC(=O)C4)[C@H]3CC[C@@]21C` [TIBOLONE], for which the IC50 entry in assay [1], in assay [2] (cho-k1), in assay [3], in assay [4], in assay [5] and in assay [6] (sf9) was “Not Active” each time. Besides, the Ki result in assay [3], in assay [4] and in assay [5] was “Not Active” throughout.

As to `C[C@]12CCC(=O)C[C@@H]1CC[C@@H]1[C@@H]2CC[C@]2(C)[C@@H](O)CC[C@@H]12` [STANOLONE], the IC50 entry in assay [1], in assay [2] (cho-k1), in assay [3], in assay [4], in assay [5] and in assay [6] (sf9) was “Not Active” in each case. The Ki entry in assay [3], in assay [4] and in assay [5] was “Not Active” each time.

Regarding `CC(C)(C)NC[C@H](O)COc1cccc2c1CCCC2=O` [LEVOBUNOLOL], the IC50 result in assay [1] was “Not Active”; in assay [2] (read-out: IC50), 6.9 nM; in assay [3], “Not Active”; in assay [4], “Not Active”; in assay [5] it was “Not Active”; in assay [6] (sf9), “Not Active”. In addition, the Ki in assay [2] (read-out: Ki) was 3.99 nM; in assay [3], “Not Active”; in assay [4] it was “Not Active”; in assay [5] it was “Not Active”.

Take `CCN1CCCC1CNC(=O)c1cc(S(N)(=O)=O)ccc1OC` (stereo not drawn) [SULPIRIDE]: the IC50 entry in assay [1], in assay [2] (cho-k1), in assay [3], in assay [4], in assay [5] and in assay [6] (sf9) was “Not Active” in each case. The Ki result in assay [3], in assay [4] and in assay [5] was “Not Active” in each case.

`CCN(CC)C(=S)SSC(=S)N(CC)CC`: the IC50 entry was “Not Active” in assay [1]; “Not Active” in assay [2] (cho-k1); “Not Active” in assay [3]; “Not Active” in assay [4]; 29900 nM in assay [5] (read-out: IC50); “Not Active” in assay [6] (sf9). Further, the results for the Ki result in assay [3], in assay [4] and in assay [5] (read-out: Ki) were “Not Active”, “Not Active” and 7580 nM, respectively.

Consider `OC[C@@H](O)[C@@H](O)[C@H](O)[C@H](O)CO` [MANNITOL], for which the IC50 entry in assay [1], in assay [2] (cho-k1), in assay [3], in assay [4], in assay [5] and in assay [6] (sf9) was “Not Active” each time. Besides, the Ki entry in assay [3], in assay [4] and in assay [5] was “Not Active” in each case.

Take `C[N+]1(C)[C@@H]2C[C@@H](OC(=O)[C@H](CO)c3ccccc3)C[C@H]1[C@@H]1O[C@@H]12.[Br-]` [METHSCOPOLAMINE BROMIDE]: the IC50 entry in assay [1], in assay [2] (cho-k1), in assay [3], in assay [4], in assay [5] and in assay [6] (sf9) was “Not Active” each time. The Ki entry in assay [3], in assay [4] and in assay [5] was “Not Active” throughout.

On to `CCN(CC)CCNC(=O)c1cc(Cl)c(N)cc1OC` [METOCLOPRAMIDE], for which the IC50 result in assay [1], in assay [2] (cho-k1), in assay [3], in assay [4], in assay [5] and in assay [6] (sf9) was “Not Active” each time. The Ki entry in assay [3], in assay [4] and in assay [5] was “Not Active” throughout.

Regarding `CC(=O)O[C@]1(C(C)=O)CC[C@H]2[C@@H]3C[C@H](C)C4=CC(=O)CC[C@]4(C)[C@H]3CC[C@@]21C` [MEDROXYPROGESTERONE ACETATE], the IC50 entry in assay [1], in assay [2] (cho-k1), in assay [3], in assay [4], in assay [5] and in assay [6] (sf9) was “Not Active” throughout. Moreover, the Ki result in assay [3], in assay [4] and in assay [5] was “Not Active” in each case.

Turning to `Cc1ccnc(NS(=O)(=O)c2ccc(N)cc2)n1` [SULFAMERAZINE], the IC50 result in assay [1], in assay [2] (cho-k1), in assay [3], in assay [4], in assay [5] and in assay [6] (sf9) was “Not Active” in each case. In addition, the Ki entry in assay [3], in assay [4] and in assay [5] was “Not Active” each time.

On to `O=C(c1ccccc1)c1ccc2n1CCC2C(=O)O` (stereo not drawn) [KETOROLAC], for which the IC50 result in assay [1], in assay [2] (cho-k1), in assay [3], in assay [4], in assay [5] and in assay [6] (sf9) was “Not Active” throughout. The Ki entry in assay [3], in assay [4] and in assay [5] was “Not Active” each time.

As for `Cc1nnc(NS(=O)(=O)c2ccc(N)cc2)s1` [SULFAMETHIZOLE], the IC50 result in assay [1], in assay [2] (cho-k1), in assay [3], in assay [4], in assay [5] and in assay [6] (sf9) was “Not Active” throughout. The Ki result in assay [3], in assay [4] and in assay [5] was “Not Active” each time.

On to `CCC(C)(C)C(=O)O[C@H]1C[C@@H](C)C=C2C=C[C@H](C)[C@H](CC[C@@H]3C[C@@H](O)CC(=O)O3)[C@H]21` [SIMVASTATIN], for which the IC50 result in assay [1], in assay [2] (cho-k1), in assay [3], in assay [4], in assay [5] and in assay [6] (sf9) was “Not Active” each time. In addition, the Ki entry in assay [3], in assay [4] and in assay [5] was “Not Active” each time.

In the case of `Oc1ccc(/C=C/c2cc(O)cc(O)c2)cc1` [RESVERATROL], the IC50 entry in assay [1], in assay [2] (cho-k1), in assay [3], in assay [4], in assay [5] and in assay [6] (sf9) was “Not Active” throughout. Also, the Ki result in assay [3], in assay [4] and in assay [5] was “Not Active” each time.

For the molecule `Cc1cnc(NC(=O)C2=C(O)c3ccccc3S(=O)(=O)N2C)s1` [MELOXICAM], the IC50 result in assay [1], in assay [2] (cho-k1), in assay [3], in assay [4], in assay [5] and in assay [6] (sf9) was “Not Active” throughout. Also, the Ki entry in assay [3], in assay [4] and in assay [5] was “Not Active” in each case.

As for `CC[C@H](C)[C@@H](CO[C@@H](Cc1ccccc1)C(=O)N[C@@H](CCS(C)(=O)=O)C(=O)OC(C)C)NC[C@@H](N)CS`, the IC50 result was “Not Active” in assay [1]; “Not Active” in assay [2] (cho-k1); “Not Active” in assay [3]; “Not Active” in assay [4]; “Not Active” in assay [5]; 3140 nM in assay [6] (read-out: IC50). In addition, the Ki entry was “Not Active” in assay [3], “Not Active” in assay [4], “Not Active” in assay [5] and 456 nM in assay [6] (read-out: Ki).

`O=C1CC[C@@]2(O)[C@H]3Cc4ccc(O)c5c4[C@@]2(CCN3CC2CC2)[C@H]1O5` [NALTREXONE]: the IC50 entry in assay [1], in assay [2] (cho-k1), in assay [3], in assay [4], in assay [5] and in assay [6] (sf9) was “Not Active” in each case. In addition, the Ki entry in assay [3], in assay [4] and in assay [5] was “Not Active” each time.

For `CNCCCC12CCC(c3ccccc31)c1ccccc12` [MAPROTILINE], the IC50 entry in assay [1] and in assay [2] (cho-k1) was “Not Active” in each case.

Regarding `CN(C)CCC=C1c2ccccc2COc2ccccc21` [DOXEPIN], in assay [1], the IC50 result was “Not Active”.

Take `C=CCc1ccc2c(c1)OCO2` [SAFROLE]: the IC50 result in assay [1], in assay [2] (cho-k1), in assay [3], in assay [4], in assay [5] and in assay [6] (sf9) was “Not Active” throughout. Moreover, the Ki result in assay [3], in assay [4] and in assay [5] was “Not Active” throughout.

On to `O=[As][O-].[Na+]` [SODIUM ARSENITE], for which the half-maximal inhibitory concentration (IC50) result in assay [1], in assay [2] (cho-k1), in assay [3], in assay [4], in assay [5] and in assay [6] (sf9) was “Not Active” throughout. The Ki entry in assay [3], in assay [4] and in assay [5] was “Not Active” throughout.

In the case of `Cc1cc2c(s1)Nc1ccccc1N=C2N1CCN(C)CC1` [OLANZAPINE], the IC50 result in assay [1] and in assay [2] (cho-k1) was “Not Active” throughout.
